The text below walks through data of PubChem BioAssay AID330 (DTP/NCI, 2004).

This assay concerns P388 leukemia ip, CD2F1 mice, survival T/C. As to the kind of experiment: NCI In Vivo Anticancer Drug Screen. Data for tumor model P388 Leukemia (intraperitoneal) in CD2F1 (CDF1) mice. The settings on record: endpoint: median survival time, higher = longer survival. Put shortly:
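Mice carrying the transplanted tumor received test compound or vehicle. Survival was recorded in each group, and the value is the treated-group measurement divided by that of the vehicle-treated control group.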

[1] abbreviates: dose: 50.0 mg/kg/injection, schedule: Q01DX009 (ip), vehicle: Klucel (hydroxypropylcellulose) (HPC).
Where [2] appears, read: dose: 100.0 mg/kg/injection, schedule: Q01DX009 (ip), vehicle: Klucel (hydroxypropylcellulose) (HPC).
Setting [3] is: dose: 200.0 mg/kg/injection, schedule: Q01DX009 (ip), vehicle: Klucel (hydroxypropylcellulose) (HPC).
The mark [4] stands for this setting: dose: 50.0 mg/kg/injection, schedule: Q01DX005 (ip), vehicle: Klucel (hydroxypropylcellulose) (HPC).
Where [5] appears, read: dose: 100.0 mg/kg/injection, schedule: Q01DX005 (ip), vehicle: Klucel (hydroxypropylcellulose) (HPC).
The mark [6] stands for this setting: dose: 200.0 mg/kg/injection, schedule: Q01DX005 (ip), vehicle: Klucel (hydroxypropylcellulose) (HPC).

Molecules are shown by their SMILES. Several values for one entry are separate records, joined by “and”; a condition that tells them apart may be missing. Equal values may be shown once. Inconclusive results and toxic doses are left out.

As for `Cn1c(=O)c2[nH]c(Cc3ccsc3)nc2n(C)c1=O`, the T/C is, setting by setting: (dose: 25.0 mg/kg/injection, schedule: Q01DX009 (ip), vehicle: Klucel (hydroxypropylcellulose) (HPC)) 110 % of control; under setting [1], 93 % of control; under setting [2], 99 % of control and 95 % of control.

Turning to `CC1(C)CC2=NO[Se]3=C2C(=NO3)C1`, the T/C is, setting by setting: (dose: 1.56 mg/kg/injection, schedule: Q01DX009 (ip), vehicle: saline with Tween-80) 104 % of control; (dose: 3.12 mg/kg/injection, schedule: Q01DX009 (ip), vehicle: saline with Tween-80) 102 % of control; (dose: 6.25 mg/kg/injection, schedule: Q01DX009 (ip), vehicle: saline with Tween-80) 104 % of control and 111 % of control; (dose: 12.5 mg/kg/injection, schedule: Q01DX009 (ip), vehicle: saline with Tween-80) 117 % of control.

As to `COc1cc2cnc(-c3ccncc3)c(N)c2cc1OC`, the T/C (dose: 100.0 mg/kg/injection, schedule: Q04DX003 (ip), vehicle: suspension in saline) was 100 % of control; the T/C (dose: 200.0 mg/kg/injection, schedule: Q04DX003 (ip), vehicle: suspension in saline) was 93 % of control; the T/C (dose: 400.0 mg/kg/injection, schedule: Q04DX003 (ip), vehicle: suspension in saline) was 89 % of control.

For `O=C1c2cc(Br)ccc2OC2CCON12` (stereo not given), the T/C runs as follows: under setting [1], 108 % of control; under setting [2], 107 % of control; under setting [3], 94 % of control.

Regarding `Cc1oc(-c2cccc(F)c2)nc1C(N)=O`, the T/C reads like this: under setting [1], 102 % of control; under setting [2], 102 % of control; under setting [3], 100 % of control.

Regarding `CN1CCN(CC(=O)N/N=C/c2ccc([N+](=O)[O-])o2)CC1`, the T/C under setting [1] is 101 % of control and 94 % of control; the T/C under setting [2] is 99 % of control and 101 % of control; the T/C under setting [3] is 107 % of control.

Consider `Cc1nc2ccccc2nc1CBr`, for which the T/C was 110 % of control (dose: 5.56 mg/kg/injection, schedule: Q01DX009 (ip), vehicle: saline with Tween-80); 120 % of control (dose: 8.33 mg/kg/injection, schedule: Q01DX009 (ip), vehicle: saline with Tween-80); 120 % of control (dose: 18.7 mg/kg/injection, schedule: Q01DX009 (ip), vehicle: saline with Tween-80).

With `Cc1cccc(Nc2nc(C)nc3[nH]c(CC(C)C)c(C)c23)c1`, the T/C reads like this: under setting [4], 91 % of control; under setting [5], 96 % of control; under setting [6], 98 % of control.

Regarding `O=C(NC(Cc1c[nH]c2ccccc12)C(=O)NC(Cc1ccc(O)cc1)C(=O)O)OCc1ccccc1` (stereo not given), the T/C is 101 % of control (dose: 50.0 mg/kg/injection, schedule: Q01DX005 (ip), vehicle: saline with Tween-80); 106 % of control (dose: 100.0 mg/kg/injection, schedule: Q01DX005 (ip), vehicle: saline with Tween-80); 89 % of control (dose: 200.0 mg/kg/injection, schedule: Q01DX005 (ip), vehicle: saline with Tween-80).

Take `CCOC(=O)c1ccc(NC(=O)Nc2nn[nH]n2)cc1`: the T/C is, setting by setting: (dose: 25.0 mg/kg/injection, schedule: Q01DX009 (ip), vehicle: distilled water + Tween-80) 105 % of control; (dose: 50.0 mg/kg/injection, schedule: Q01DX009 (ip), vehicle: distilled water + Tween-80) 115 % of control; (dose: 100.0 mg/kg/injection, schedule: Q01DX009 (ip), vehicle: distilled water + Tween-80) 108 % of control; (dose: 200.0 mg/kg/injection, schedule: Q01DX009 (ip), vehicle: distilled water + Tween-80) 100 % of control; (dose: 400.0 mg/kg/injection, schedule: Q01DX009 (ip), vehicle: distilled water + Tween-80) 108 % of control.

In the case of `COc1ccc(C)cc1NC(=S)NC(=O)/C=C/c1ccccc1`, the T/C reads like this: (dose: 25.0 mg/kg/injection, schedule: Q01DX009 (ip), vehicle: saline) 97 % of control; (dose: 50.0 mg/kg/injection, schedule: Q01DX009 (ip), vehicle: saline) 87 % of control; (dose: 100.0 mg/kg/injection, schedule: Q01DX009 (ip), vehicle: saline) 96 % of control; (dose: 200.0 mg/kg/injection, schedule: Q01DX009 (ip), vehicle: saline) 98 % of control.

Turning to `CCOC(=O)C/C(C)=N\NC(=O)c1ccncc1`, the T/C is 97 % of control (dose: 37.0 mg/kg/injection, schedule: Q01DX009 (ip), vehicle: saline with Tween-80); 105 % of control (dose: 75.0 mg/kg/injection, schedule: Q01DX009 (ip), vehicle: saline with Tween-80); 106 % of control (dose: 150.0 mg/kg/injection, schedule: Q01DX009 (ip), vehicle: saline with Tween-80).

In the case of `Cc1ccc(S(=O)(=O)/C(=N\O)c2ccc(Cl)cc2)cc1`, the T/C reads like this: under setting [4], 96 % of control; under setting [5], 107 % of control; under setting [6], 95 % of control.

As for `COc1cc(N=Nc2ccc(N=Nc3ccc4cc(S(=O)(=O)O)cc(S(=O)(=O)O)c4c3)c(C)c2)c(C)cc1NC(=O)c1ccc(NC(=O)c2ccc(N)cc2)cc1`, the T/C is, setting by setting: (dose: 25.0 mg/kg/injection, schedule: Q01DX005 (ip), vehicle: Klucel (hydroxypropylcellulose) (HPC)) 103 % of control and 108 % of control; under setting [4], 107 % of control and 111 % of control and 117 % of control; under setting [5], 103 % of control and 116 % of control; under setting [6], 107 % of control and 112 % of control and 97 % of control.

With `Cc1cccc(CNc2cccc(C)n2)n1`, the T/C is, setting by setting: (dose: 50.0 mg/kg/injection, schedule: Q01DX005 (ip), vehicle: saline) 105 % of control; (dose: 100.0 mg/kg/injection, schedule: Q01DX005 (ip), vehicle: saline) 97 % of control.

Consider `COc1ccc(C/C(N)=N\O)cc1`, for which the T/C by setting is: under setting [1], 108 % of control; under setting [2], 106 % of control; under setting [3], 117 % of control.

As for `CC(C)C1OC(c2ccc(Cl)cc2)OCC1(C)C` (stereo not given), the T/C by setting is: (dose: 100.0 mg/kg/injection, schedule: Q04DX003 (ip), vehicle: saline with Tween-80) 114 % of control; (dose: 200.0 mg/kg/injection, schedule: Q04DX003 (ip), vehicle: saline with Tween-80) 110 % of control; (dose: 400.0 mg/kg/injection, schedule: Q04DX003 (ip), vehicle: saline with Tween-80) 97 % of control.

On to `COC(=O)CC1C(C)=CCC2C(=O)C=C(OC)C(=O)C21C` (stereo not given), for which the T/C was 101 % of control under setting [4], 101 % of control under setting [5] and 100 % of control under setting [6].

With `COc1cccc2c1C(=O)c1c(O)c3c(c(O)c1C2=O)C[C@@](O)(C(=O)CN1CCOCC1)C[C@@H]3OC1CC(N)C(O)C(C)O1` (stereo not given in full), the T/C by setting is: (dose: 1.3 mg/kg/injection, schedule: Q01DX001 (ip), vehicle: water) 116 % of control; (dose: 1.56 mg/kg/injection, schedule: Q01DX009 (ip), vehicle: water) 103 % of control; (dose: 1.8 mg/kg/injection, schedule: Q01DX001 (ip), vehicle: water) 114 % of control; (dose: 2.4 mg/kg/injection, schedule: Q01DX001 (ip), vehicle: water) 116 % of control; (dose: 3.13 mg/kg/injection, schedule: Q01DX009 (ip), vehicle: water) 115 % of control; (dose: 3.2 mg/kg/injection, schedule: Q01DX001 (ip), vehicle: water) 119 % of control. Also, the T/C is 119 % of control (dose: 4.2 mg/kg/injection, schedule: Q01DX001 (ip), vehicle: water); 156 % of control (dose: 5.56 mg/kg/injection, schedule: Q01DX009 (ip), vehicle: water); 162 % of control (dose: 8.33 mg/kg/injection, schedule: Q01DX009 (ip), vehicle: water); 119 % of control (dose: 10.0 mg/kg/injection, schedule: Q01DX001 (ip), vehicle: water); 153 % of control (dose: 18.8 mg/kg/injection, schedule: Q01DX009 (ip), vehicle: water); 162 % of control (dose: 50.0 mg/kg/injection, schedule: Q01DX001 (ip), vehicle: water). Moreover, the T/C (dose: 100.0 mg/kg/injection, schedule: Q01DX001 (ip), vehicle: water) is 174 % of control.

With `O=c1c(CN(CCO)CCO)c(-c2ccccc2)sc2ccccc12`, the T/C is 100 % of control (dose: 12.5 mg/kg/injection, schedule: Q04DX002 (ip), vehicle: saline with Tween-80); 100 % of control (dose: 25.0 mg/kg/injection, schedule: Q04DX002 (ip), vehicle: saline with Tween-80); 97 % of control (dose: 50.0 mg/kg/injection, schedule: Q04DX002 (ip), vehicle: saline with Tween-80); 91 % of control (dose: 100.0 mg/kg/injection, schedule: Q04DX002 (ip), vehicle: saline with Tween-80).
